Laboratory results: patent US20130165641A1, “6,11-BRIDGED BIARYL MACROLIDES” (Enanta Pharmaceuticals, Inc., priority 2007, published 2013)
Converted amounts (≈) assume the structure as drawn.

Tested on: MRSA
Assay: MIC by micro-dilution method, MRSA isolates
Format: cell-based, Staphylococcus aureus
Conditions: compounds of Formula XVI; for MIC MRSA 7662: MRSA isolate 7662; for MIC MRSA 33591: MRSA isolate 33591
Protocol: Susceptibility tests can be used to quantitatively measure the in vitro activity of an antimicrobial agent against a given bacterial isolate. Compounds are tested for in vitro antibacterial activity by a micro-dilution method. Minimal Inhibitory Concentration (MIC) is determined in 96 well microtiter plates utilizing the appropriate broth medium for the observed bacterial isolates. […] The diluted compounds (2 μl/well) are then transferred into sterile, uninoculated medium (0.2 mL) by use of a 96 fixed tip-pipetting station. The inoculum for each bacterial strain is standardized to approximately 5×10^5 CFU/mL by optical comparison to a 0.5 McFarland turbidity standard. The plates are inoculated with 10 μl/well of adjusted bacterial inoculum. The 96 well plates are covered and incubated at 35+/−2° C. for 24 hours in ambient air environment. Following incubation, plate wells are visually examined by Optical Density measurement for the presence of growth (turbidity). The lowest concentration of an antimicrobial agent at which no visible growth occurs is defined as the MIC.
All in vitro testing follows the guidelines described in the Approved Standards M7-A7 protocol, published by the Clinical Laboratory Standards Institute (CLSI).

Row | Structure (SMILES) | MIC MRSA 7662 [µg/mL] | MIC MRSA 33591 [µg/mL]
1 | CCC(=O)N=C1[C@H](C)C[C@@]2(C)OC/C(=N/OCc3ncc(-c4cccc(N)n4)s3)CO[C@H]([C@H]1C)[C@](C)(O)[C@@H](CC)OC(=O)[C@@](C)(F)C(=O)[C@H](C)[C@H]2O[C@@H]1O[C@H](C)C[C@H](N(C)C)[C@H]1O [Example 110] | 2 (≈ 2.21 µM) | 2 (≈ 2.21 µM)
2 | CC[C@H]1OC(=O)[C@@](C)(F)C(=O)[C@H](C)[C@@H](O[C@@H]2O[C@H](C)C[C@H](N(C)C)[C@H]2O)[C@@]2(C)C[C@@H](C)C(=NC(=O)C(C)C)[C@H](C)[C@@H](OC/C(=N\OCc3ncc(-c4cccc(N)n4)s3)CO2)[C@]1(C)O [Example 111] | 2 (≈ 2.18 µM) | 2 (≈ 2.18 µM)
3 | CC[C@H]1OC(=O)[C@@](C)(F)C(=O)[C@H](C)[C@@H](O[C@@H]2O[C@H](C)C[C@H](N(C)C)[C@H]2O)[C@@]2(C)C[C@@H](C)C(=NC(=O)C3CC3)[C@H](C)[C@@H](OC/C(=N\OCc3ncc(-c4cccc(N)n4)s3)CO2)[C@]1(C)O [Example 112] | 4 (≈ 4.36 µM) | 8 (≈ 8.72 µM)
4 | CC[C@H]1OC(=O)[C@@](C)(F)C(=O)[C@H](C)[C@@H](O[C@@H]2O[C@H](C)C[C@H](N(C)C)[C@H]2O)[C@@]2(C)C[C@@H](C)C(=NC(=O)C(C)C)[C@H](C)[C@@H](OC/C(=N\OCc3ccc(-n4ccc(N)n4)cc3Cl)CO2)[C@]1(C)O [Example 116] | 4 (≈ 4.28 µM) | 4 (≈ 4.28 µM)
5 | CCC(=O)N=C1[C@H](C)C[C@@]2(C)OC/C(=N/OCc3cnc(-c4cccc(N)n4)s3)CO[C@H]([C@H]1C)[C@](C)(O)[C@@H](CC)OC(=O)[C@@](C)(F)C(=O)[C@H](C)[C@H]2O[C@@H]1O[C@H](C)C[C@H](N(C)C)[C@H]1O [Example 117] | 2 (≈ 2.21 µM) | 4 (≈ 4.42 µM)
6 | CCC(=O)N=C1[C@H](C)C[C@@]2(C)OC/C(=N/OCc3ccc(-c4nc(N)cs4)cn3)CO[C@H]([C@H]1C)[C@](C)(O)[C@@H](CC)OC(=O)[C@H](C)C(=O)[C@H](C)[C@H]2O[C@@H]1O[C@H](C)C[C@H](N(C)C)[C@H]1O [Example 119] | 4 (≈ 4.51 µM) | 8 (≈ 9.02 µM)
7 | CCC(=O)N=C1[C@H](C)C[C@@]2(C)OC/C(=N/OCc3ccc(-c4nc(N)cs4)cc3)CO[C@H]([C@H]1C)[C@](C)(O)[C@@H](CC)OC(=O)[C@@](C)(F)C(=O)[C@H](C)[C@H]2O[C@@H]1O[C@H](C)C[C@H](N(C)C)[C@H]1O [Example 120] | 4 (≈ 4.42 µM) | 4 (≈ 4.42 µM)

Other lines, results leading:

Row | MIC MRSA 7662 [µg/mL] | MIC MRSA 33591 [µg/mL] | Structure (SMILES)
8 | 2 (≈ 2.18 µM) | 2 (≈ 2.18 µM) | CC[C@H]1OC(=O)[C@@](C)(F)C(=O)[C@H](C)[C@@H](O[C@@H]2O[C@H](C)C[C@H](N(C)C)[C@H]2O)[C@@]2(C)C[C@@H](C)C(=NC(=O)C(C)C)[C@H](C)[C@@H](OC/C(=N\OCc3ccc(-c4nc(N)cs4)cn3)CO2)[C@]1(C)O [Example 109]
9 | 4 (≈ 4.44 µM) | 8 (≈ 8.89 µM) | CCC(=O)N=C1[C@H](C)C[C@@]2(C)OC/C(=N/OCc3ccc(-c4nccc(N)n4)cn3)CO[C@H]([C@H]1C)[C@](C)(O)[C@@H](CC)OC(=O)[C@@](C)(F)C(=O)[C@H](C)[C@H]2O[C@@H]1O[C@H](C)C[C@H](N(C)C)[C@H]1O [Example 113]
10 | 4 (≈ 4.38 µM) | 8 (≈ 8.75 µM) | CC[C@H]1OC(=O)[C@@](C)(F)C(=O)[C@H](C)[C@@H](O[C@@H]2O[C@H](C)C[C@H](N(C)C)[C@H]2O)[C@@]2(C)C[C@@H](C)C(=NC(=O)C(C)C)[C@H](C)[C@@H](OC/C(=N\OCc3ccc(-c4nccc(N)n4)cn3)CO2)[C@]1(C)O [Example 114]
11 | 4 (≈ 4.43 µM) | 8 (≈ 8.86 µM) | CC[C@H]1OC(=O)[C@@](C)(F)C(=O)[C@H](C)[C@@H](O[C@@H]2O[C@H](C)C[C@H](N(C)C)[C@H]2O)[C@@]2(C)C[C@@H](C)C(=NC(=O)C(C)C)[C@H](C)[C@@H](OC/C(=N\OCc3coc(-c4cccc(N)n4)n3)CO2)[C@]1(C)O [Example 118]
